These results are taken from ChEMBL document CHEMBL3616475 (Bioorg Med Chem, 2015).

The target in assay [1] is T1, Adenosine receptor A1 (Rattus norvegicus, UniProt P25099).
T1 sequence (P25099 whole entry): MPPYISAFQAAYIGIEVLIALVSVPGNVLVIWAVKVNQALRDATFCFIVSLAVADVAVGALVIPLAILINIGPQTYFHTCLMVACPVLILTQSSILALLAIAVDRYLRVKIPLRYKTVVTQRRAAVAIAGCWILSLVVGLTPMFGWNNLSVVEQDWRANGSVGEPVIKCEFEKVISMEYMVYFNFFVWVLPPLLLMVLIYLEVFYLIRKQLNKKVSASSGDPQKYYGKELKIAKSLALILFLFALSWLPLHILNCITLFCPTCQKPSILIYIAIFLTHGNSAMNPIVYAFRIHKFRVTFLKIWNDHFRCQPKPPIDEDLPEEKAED
The experiment in a line: Displacement of [3H]-DPCPX from Adenosine A1 receptor in Sprague-Dawley rat whole brain membranes. Set-up: species or system Membrane. On the technique in general: In a radioligand displacement assay an active substance lowers the binding of a labelled ligand.

The species named for assay [2] is Rattus norvegicus. The experiment in a line: Selectivity ratio of Ki for Adenosine A2A receptor in Sprague-Dawley rat striatal membranes to Ki for Adenosine A1 receptor in Sprague-Dawley rat whole brain membranes.
Assay [3] addresses T2, Adenosine receptor A2a (Rattus norvegicus, UniProt P30543). The experiment in a line: Displacement of [3H]-NECA from Adenosine A2A receptor in Sprague-Dawley rat striatal membranes. The arrangement: species or system Striatum, Membrane.
The target of assay [4] is T1, Adenosine receptor A1.
Description: Displacement of [3H]-DPCPX from Adenosine A1 receptor in Sprague-Dawley rat brain cortical membranes in absence of GTP
Assay [5] deals with T1, Adenosine receptor A1. This is another data set of the same source.
Description: Displacement of [3H]-DPCPX from Adenosine A1 receptor in Sprague-Dawley rat brain cortical membranes in presence of 0.1 mM GTP
For assay [6], the target named is T1, Adenosine receptor A1. This is another data set of the same source.
Description: Displacement of [3H]-DPCPX from Adenosine A1 receptor in Sprague-Dawley rat whole brain membranes in absence of GTP
Assay [7] concerns the target T1, Adenosine receptor A1. This is another data set of the same source.
Description: Displacement of [3H]-DPCPX from Adenosine A1 receptor in Sprague-Dawley rat whole brain membranes in presence of 0.1 mM GTP
Assay [8] has as its system Rattus norvegicus. The experiment in a line: Inhibition of CPA-induced hypolocomotion in Sprague-Dawley rat at 0.06 to […], ip administered 25 mins prior to CPA addition measured for 20 mins starting from 5 mins post habituation.
Assay [9] concerns Rattus norvegicus. The experiment in a line: Inhibition of CPA-induced hypolocomotion in Sprague-Dawley rat at 0.03 to 0.1 mg/kg, ip administered 25 mins prior to CPA addition measured for 20 mins starting from 5 mins post habituation. It counts as functional, organism-based.
Assay [10] deals with T2, Adenosine receptor A2a. The experiment in a line: Binding affinity to Adenosine A2A receptor in rat brain tissue by radioligand displacement assay. The class given is tissue-based.

Activity calls are given as the source filed them. The rule behind the calls is not given here.

T2 sequence (P30543 whole entry): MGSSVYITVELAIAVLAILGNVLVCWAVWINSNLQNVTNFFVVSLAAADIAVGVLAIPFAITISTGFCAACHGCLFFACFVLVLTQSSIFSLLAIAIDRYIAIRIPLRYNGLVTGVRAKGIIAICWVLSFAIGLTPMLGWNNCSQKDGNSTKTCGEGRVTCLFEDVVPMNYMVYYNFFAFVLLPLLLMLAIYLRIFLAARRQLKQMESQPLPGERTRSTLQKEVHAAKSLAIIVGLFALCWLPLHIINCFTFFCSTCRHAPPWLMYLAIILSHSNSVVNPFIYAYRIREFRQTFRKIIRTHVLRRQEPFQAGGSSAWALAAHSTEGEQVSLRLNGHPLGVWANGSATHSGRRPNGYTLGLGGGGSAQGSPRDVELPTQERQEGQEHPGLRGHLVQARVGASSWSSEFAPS

What is called Ki is a dissociation constant, usually derived from enzyme kinetics or from competition with a known ligand. A high value points to a looser hold on the target. In the case of `CCn1c(=O)c2c(nc(CCCc3ccccc3)n2CC)n(CC)c1=O`, the Ki in assay [1] was 164 nM; in assay [3], 2710 nM; in assay [4] it was 139 nM; in assay [5], 258 nM; in [6], 164 nM; in assay [7], 209 nM. In addition, the Ratio Ki in [2] amounted to 17. In addition, the inhibition result in assay [8] is “Active”.
Turning to `CCn1c(=O)c2c(nc(CCc3ccccc3)n2CC)n(CC)c1=O`, the Ki in assay [1] was determined as 636 nM; in assay [3] it was 4970 nM; in assay [4], 543 nM; in [5], 681 nM; in assay [6], 636 nM; in [7] it was 763 nM. Also, in assay [2], the Ratio Ki turned out to be 8.
For `OC[C@H]1O[C@@H](n2cnc3c(NC4CCCC4)ncnc32)[C@H](O)[C@@H]1O` [N6-CYCLOPENTYLADENOSINE], in assay [3], the Ki worked out at 331 nM.
`Cn1c(=O)c2c(nc(CCc3ccccc3)n2C)n(C)c1=O`: the Ki was determined as 5740 nM in [1] and 4950 nM in assay [3]. The Ratio Ki in assay [2] turned out to be 0.86.
For `CCn1c(CCCc2ccccc2)nc2c1c(=O)n(C)c(=O)n2C`, in that order: 259 nM, 4930 nM and 19.
With `CCn1c(COc2ccccc2)nc2c1c(=O)n(C)c(=O)n2C`, the Ki in [1] was 1100 nM; in assay [3], 2250 nM. Further, the Ratio Ki in assay [2] amounted to 2.
For `CCCn1c(=O)c2[nH]c(C3CCCC3)nc2n(CCC)c1=O`, in [9], the inhibition result was “Active”.
Consider `CCn1c(CCc2ccccc2)nc2c1c(=O)n(C)c(=O)n2C`, for which the Ki was 1090 nM in [1] and 3110 nM in assay [3]. In [2], the Ratio Ki came to 3.
For `Cn1c(=O)c2c(nc(COc3ccccc3)n2C)n(C)c1=O`, in that order: 3090 nM, 2370 nM and 0.77.
Consider `Cn1c(=O)c2c(nc(-c3ccccc3)n2C)n(C)c1=O`, for which the Ki in [10] is 27000 nM.
Regarding `CCn1c(=O)c2c(nc(CCc3ccccc3)n2C)n(CC)c1=O`, the inhibition constant (Ki) in assay [1] worked out at 816 nM; in assay [3], 2360 nM. Also, in assay [2], the Ratio Ki worked out at 3.
The matching figures for `Cn1c(=O)c2c(nc(CCCc3ccccc3)n2C)n(C)c1=O`: 1550 nM, 6800 nM and 4.
For `CCn1c(=O)c2c(nc(COc3ccccc3)n2C)n(CC)c1=O`, the Ki in assay [1] stood at 874 nM; in assay [3], 1910 nM. Besides, in [2], the Ratio Ki is 2.
The matching figures for `CCn1c(=O)c2c(nc(CCCc3ccccc3)n2C)n(CC)c1=O`: 1240 nM, 3930 nM and 3.
In the case of `CCn1c(=O)c2c(nc(COc3ccccc3)n2CC)n(CC)c1=O`, the Ki in [1] came to 416 nM; in assay [3] it was 2640 nM; in assay [4] it was 356 nM; in [5], 368 nM; in assay [6], 416 nM; in assay [7] it was 397 nM. Moreover, the Ratio Ki in assay [2] came out at 6.
